Experimental data published in ChEMBL document CHEMBL1201862, “PubChem BioAssay data set” (2004).
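Cultured in 96-well plates, cells were exposed to test compound for 48 hours across five concentrations. GI50: concentration for 50% inhibition of growth.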 Active and inactive are the calls of the source. No stated cut-off is given here; in the data, active = GI50 up to about 1.1 µM and inactive = higher.

Legend:
Assay in all cases: growth of human tumour cells (NCI), 48 h
NCI-H226 = tested on: NCI-H226
HCT-15 = tested on: HCT-15
EKVX = tested on: EKVX
RPMI-8226 = tested on: RPMI-8226
KM12 = tested on: KM12
NCI-H522 = tested on: NCI-H522
SF-295 = tested on: SF-295
LOX IMVI = tested on: LOX IMVI
HT-29 = tested on: HT-29
SW-620 = tested on: SW-620
SF-539 = tested on: SF-539
SNB-19 = tested on: SNB-19
SF-268 = tested on: SF-268
ACHN = tested on: ACHN
OVCAR-4 = tested on: OVCAR-4
TK-10 = tested on: TK-10
HOP-92 = tested on: HOP-92
UO-31 = tested on: UO-31
HCT-116 = tested on: HCT-116
MOLT-4 = tested on: MOLT-4

Compound	GI50 (NCI-H226)	GI50 (HCT-15)	GI50 (EKVX)	GI50 (RPMI-8226)	GI50 (KM12)	GI50 (NCI-H522)	GI50 (SF-295)	GI50 (LOX IMVI)	GI50 (HT-29)	GI50 (SW-620)	GI50 (SF-539)	GI50 (SNB-19)	GI50 (SF-268)	GI50 (ACHN)	GI50 (OVCAR-4)	GI50 (TK-10)	GI50 (HOP-92)	GI50 (UO-31)	GI50 (HCT-116)	GI50 (MOLT-4)
CC(Oc1ccc(Cl)cc1Cl)C(=O)NN1C(=O)CC(=O)NC1=S (centres undefined)	82.8 µM (inactive)	86.9 µM	> 100 µM (inactive)	46 µM (inactive)	> 100 µM (inactive)	> 100 µM (inactive)	> 100 µM (inactive)	80 µM (inactive)	> 100 µM (inactive)	> 100 µM (inactive)	> 100 µM (inactive)	> 100 µM (inactive)	> 100 µM (inactive)	88.1 µM (inactive)	> 100 µM (inactive)	> 100 µM (inactive)	39.6 µM (inactive)	> 100 µM (inactive)	> 100 µM (inactive)	
COn1oc(=O)c2ccccc21	> 100 µM (inactive)	> 100 µM	> 100 µM (inactive)	> 100 µM (inactive)	> 100 µM (inactive)	11.5 µM (inactive)	> 100 µM (inactive)	> 100 µM (inactive)	> 100 µM (inactive)	> 100 µM (inactive)	> 100 µM (inactive)	> 100 µM (inactive)	> 100 µM (inactive)	> 100 µM (inactive)	> 100 µM (inactive)	> 100 µM (inactive)	> 100 µM (inactive)	> 100 µM (inactive)	> 100 µM (inactive)	> 100 µM (inactive)
